Results as given in ChEMBL document CHEMBL3045902, “Actions of imidacloprid, clothianidin and related neonicotinoids on nicotinic acetylcholine receptors of American cockroach neurons and their relationships with insecticidal potency” (J Pestic Sci, 2006).
Calls of active or inactive are those of the source. No cut-off for these calls is given here.

Legend:
[1] = target: T1, Nicotinic acetylcholine receptor alpha8 subunit (Periplaneta americana) (UniProt H6TY12); assay: Agonist activity at Periplaneta americana (American cockroach) nAChR in terminal abdominal ganglion assessed as assessed as inward current by tight-seal whole cell patch clamp method relative to 100 uM ACh; type: tissue-based
T1 sequence (whole entry): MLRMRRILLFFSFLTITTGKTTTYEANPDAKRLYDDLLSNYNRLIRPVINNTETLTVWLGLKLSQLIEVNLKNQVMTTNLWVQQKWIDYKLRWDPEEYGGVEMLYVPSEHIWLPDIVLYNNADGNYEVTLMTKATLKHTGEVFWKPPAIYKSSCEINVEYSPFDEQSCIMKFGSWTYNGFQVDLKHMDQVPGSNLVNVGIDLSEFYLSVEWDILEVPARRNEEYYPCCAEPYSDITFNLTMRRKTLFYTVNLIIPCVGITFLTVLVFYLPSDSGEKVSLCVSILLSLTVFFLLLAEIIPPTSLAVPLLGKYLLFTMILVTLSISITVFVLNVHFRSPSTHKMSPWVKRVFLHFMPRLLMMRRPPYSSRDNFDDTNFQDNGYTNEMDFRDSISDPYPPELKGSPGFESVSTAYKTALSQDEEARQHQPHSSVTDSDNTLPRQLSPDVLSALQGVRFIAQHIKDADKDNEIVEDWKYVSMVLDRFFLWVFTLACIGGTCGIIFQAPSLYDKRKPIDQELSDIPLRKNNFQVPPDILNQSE

Periplaneta americana = assay: Insecticidal activity against Periplaneta americana (American cockroach) assessed as killing measured per insect at 25 to 28 degC for 24 hr in presence of piperonyl butoxide; type: functional
[2] = target: T2, Nicotinic acetylcholine receptor alpha8 subunit (Periplaneta americana, UniProt H6TY12); assay: Agonist activity at Periplaneta americana (American cockroach) nAChR in terminal abdominal ganglion assessed as assessed as inward current by tight-seal whole cell patch clamp method; type: tissue-based
T2 sequence (H6TY12 whole entry): T1 sequence (whole entry)

[3] = Hydrophobicity, log K of the compound by HPLC; type: physicochemical

SMILES | Imax [1] | pMLD (Periplaneta americana) | EC50 [2] | log K [3]
CN/C(=N\[N+](=O)[O-])NCc1cnc(Cl)s1 [CLOTHIANIDINE] | 0.68 | 10.2 | 1580 nM | 0.17
C/N=C(\NCc1ccc(Cl)nc1)N[N+](=O)[O-] | 0.31 | 9.52 | 1860 nM | 0.11
O=[N+]([O-])NC1=NCCN1Cc1ccc(Cl)nc1 [IMIDACLOPRID] | – | – | 1320 nM | 0.23
CN/C(=C\[N+](=O)[O-])NCc1ccc(Cl)nc1 | 0.44 | 9.22 | 38.9 nM | 0.16
CC(=O)OCC[N+](C)(C)C [ACETYLCHOLINE] | – | inactive | 11500 nM | –
O=[N+]([O-])/C=C1\NCCN1Cc1cnc(Cl)s1 | 0.3 | 10.2 | 15.8 nM | 0.03
O=[N+]([O-])/N=C1\NCCN1Cc1ccc(Cl)nc1 [IMIDACLOPRID] | 0.11 | 10.4 | – | –
O=[N+]([O-])/N=C1\NCCN1Cc1cnc(Cl)s1 [IMIDACLOTHIZ] | 0.3 | 9.07 | 1580 nM | 0.28
O=[N+]([O-])/C=C1\NCCN1Cc1ccc(Cl)nc1 | 0.24 | 10.1 | 72.4 nM | 0.05
CN/C(=C\[N+](=O)[O-])NCc1cnc(Cl)s1 | 0.47 | 10.2 | 19.5 nM | 0.14
